Data as given in patent publication US11059789B2, “Isoquinoline-steroid conjugates and uses thereof” (priority 2018, dated 2021).
pIC50: −log10 of the molar value. Counter-ions that a name gives are not always drawn.

Key:
[1] = test system: RAW264.7 immortalized murine macrophages; experiment: TNFα secretion assay (LPS-induced, ELISA); type: cell-based; conditions: RAW264.7 cells, 4 hrs
Description: The TNFα assay quantifies secreted TNFα from RAW264.7 immortalized murine macrophages as an indicator of inflammation. The cells were concurrently treated with LPS (as an inducer of inflammation) and a titration of test molecules or control compounds for 4 hrs. After the incubation period, the media was harvested and assayed via an ELISA assay. ODs of experimental samples are fit to those of a standard curve to extrapolate the TNFα concentration. IC50 values were calculated by fitting a curve to experimental values with the controls as the top and bottom limits of the curve. Selected compounds provided herein were subjected to this assay.

ROCK2 = ROCK2 (Homo sapiens (Human), UniProt O75116); experiment: Kinase assay ROCK2; type: biochemical; conditions: HCl salt
Description: (§1) Inhibition of various kinases was assayed.

ROCK1 = ROCK1 (Homo sapiens (Human), UniProt Q13464); experiment: Kinase assay ROCK1; type: biochemical; conditions: HCl salt
Description: as §1

PKA = PKA (Homo sapiens, UniProt P17612); experiment: Kinase assay PKA; type: biochemical; conditions: HCl salt
Description: as §1

JAK1 = JAK1 (Homo sapiens (Human), UniProt P23458); experiment: Kinase assay JAK1; type: biochemical; conditions: HCl salt
Description: as §1

JAK3 = JAK3 (Homo sapiens (Human), UniProt P52333); experiment: Kinase assay JAK3; type: biochemical; conditions: HCl salt
Description: as §1

TYK2 = TYK2 (Homo sapiens (Human), UniProt P29597); experiment: Kinase assay TYK2; type: biochemical; conditions: HCl salt
Description: as §1

IKKb = IKKb (Homo sapiens (Human), UniProt O14920); experiment: Kinase assay IKKb; type: biochemical; conditions: HCl salt
Description: as §1

PKCh = PKCh (Homo sapiens (Human), UniProt P24723); experiment: Kinase assay PKCh; type: biochemical; conditions: HCl salt
Description: as §1

PKCd = PKCd (Homo sapiens (Human), UniProt Q05655); experiment: Kinase assay PKCd; type: biochemical; conditions: HCl salt
Description: as §1

PKCe = PKCe (Homo sapiens (Human), UniProt Q02156); experiment: Kinase assay PKCe; type: biochemical; conditions: HCl salt
Description: as §1

AKT1 = AKT1 (Homo sapiens (Human), UniProt P31749); experiment: Kinase assay AKT1; type: biochemical; conditions: HCl salt
Description: as §1

PTM = PTM assay; type: cell-based; conditions: HCl salt
Description: as §1

NFkB = NFkB assay; type: cell-based; conditions: HCl salt
Description: as §1

JAK2 = JAK2 (Homo sapiens (Human), UniProt O60674); experiment: Kinase assay JAK2; type: biochemical; conditions: HCl salt
HTM = HTM assay; type: cell-based; conditions: HCl salt
Description: as §1

in vitro = type: cell-based

PKCh, sequence (P24723 whole entry): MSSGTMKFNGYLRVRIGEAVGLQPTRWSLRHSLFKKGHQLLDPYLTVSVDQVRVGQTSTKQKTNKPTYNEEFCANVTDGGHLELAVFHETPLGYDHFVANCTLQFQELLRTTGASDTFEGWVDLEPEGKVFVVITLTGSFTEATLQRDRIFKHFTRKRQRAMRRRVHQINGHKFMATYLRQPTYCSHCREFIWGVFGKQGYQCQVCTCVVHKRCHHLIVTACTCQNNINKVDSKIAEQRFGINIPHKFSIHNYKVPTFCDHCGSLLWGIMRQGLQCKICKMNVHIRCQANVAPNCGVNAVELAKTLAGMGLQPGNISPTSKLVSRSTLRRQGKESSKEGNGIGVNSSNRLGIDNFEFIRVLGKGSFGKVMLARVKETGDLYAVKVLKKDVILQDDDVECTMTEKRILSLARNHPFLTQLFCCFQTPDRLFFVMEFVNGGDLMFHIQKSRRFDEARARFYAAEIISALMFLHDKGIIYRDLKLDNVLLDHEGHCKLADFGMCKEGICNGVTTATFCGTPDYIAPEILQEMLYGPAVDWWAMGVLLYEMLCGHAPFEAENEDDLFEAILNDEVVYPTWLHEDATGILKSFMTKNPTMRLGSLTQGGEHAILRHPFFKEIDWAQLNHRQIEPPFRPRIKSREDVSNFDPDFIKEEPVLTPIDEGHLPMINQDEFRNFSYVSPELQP
IKKb, sequence (O14920 whole entry, species assumed): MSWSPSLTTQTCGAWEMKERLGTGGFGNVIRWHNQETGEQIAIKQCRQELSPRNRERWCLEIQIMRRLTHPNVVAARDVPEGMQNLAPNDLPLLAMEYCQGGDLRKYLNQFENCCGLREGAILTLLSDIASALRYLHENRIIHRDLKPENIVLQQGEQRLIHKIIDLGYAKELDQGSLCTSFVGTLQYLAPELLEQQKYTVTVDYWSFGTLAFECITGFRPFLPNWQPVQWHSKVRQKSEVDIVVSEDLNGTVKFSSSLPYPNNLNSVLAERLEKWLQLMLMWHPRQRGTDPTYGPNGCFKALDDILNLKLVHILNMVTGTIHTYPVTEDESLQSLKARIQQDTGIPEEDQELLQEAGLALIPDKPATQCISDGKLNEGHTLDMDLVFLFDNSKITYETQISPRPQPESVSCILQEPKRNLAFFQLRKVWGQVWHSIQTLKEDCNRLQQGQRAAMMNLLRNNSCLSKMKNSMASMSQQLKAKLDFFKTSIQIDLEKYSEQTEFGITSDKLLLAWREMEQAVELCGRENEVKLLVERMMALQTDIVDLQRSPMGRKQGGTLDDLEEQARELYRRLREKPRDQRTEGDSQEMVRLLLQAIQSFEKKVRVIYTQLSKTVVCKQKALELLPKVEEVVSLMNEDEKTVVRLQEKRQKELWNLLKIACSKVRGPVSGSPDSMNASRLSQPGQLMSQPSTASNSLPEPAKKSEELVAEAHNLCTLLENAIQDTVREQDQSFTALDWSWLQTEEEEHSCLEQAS
AKT1, sequence (P31749 whole entry, species assumed): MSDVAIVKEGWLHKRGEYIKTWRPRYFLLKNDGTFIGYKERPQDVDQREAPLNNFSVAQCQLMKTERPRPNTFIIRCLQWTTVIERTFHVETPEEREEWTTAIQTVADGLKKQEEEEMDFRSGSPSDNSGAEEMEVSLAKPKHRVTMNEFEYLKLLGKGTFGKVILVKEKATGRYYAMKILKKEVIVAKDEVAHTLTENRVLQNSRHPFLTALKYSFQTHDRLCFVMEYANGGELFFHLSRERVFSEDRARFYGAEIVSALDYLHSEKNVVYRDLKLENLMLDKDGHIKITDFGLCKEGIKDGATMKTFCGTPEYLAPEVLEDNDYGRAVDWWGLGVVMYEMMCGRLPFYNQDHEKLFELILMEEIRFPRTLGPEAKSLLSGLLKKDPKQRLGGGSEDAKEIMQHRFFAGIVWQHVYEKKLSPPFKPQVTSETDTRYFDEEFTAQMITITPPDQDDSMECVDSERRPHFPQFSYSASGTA
PKCd, sequence (Q05655 whole entry, species assumed): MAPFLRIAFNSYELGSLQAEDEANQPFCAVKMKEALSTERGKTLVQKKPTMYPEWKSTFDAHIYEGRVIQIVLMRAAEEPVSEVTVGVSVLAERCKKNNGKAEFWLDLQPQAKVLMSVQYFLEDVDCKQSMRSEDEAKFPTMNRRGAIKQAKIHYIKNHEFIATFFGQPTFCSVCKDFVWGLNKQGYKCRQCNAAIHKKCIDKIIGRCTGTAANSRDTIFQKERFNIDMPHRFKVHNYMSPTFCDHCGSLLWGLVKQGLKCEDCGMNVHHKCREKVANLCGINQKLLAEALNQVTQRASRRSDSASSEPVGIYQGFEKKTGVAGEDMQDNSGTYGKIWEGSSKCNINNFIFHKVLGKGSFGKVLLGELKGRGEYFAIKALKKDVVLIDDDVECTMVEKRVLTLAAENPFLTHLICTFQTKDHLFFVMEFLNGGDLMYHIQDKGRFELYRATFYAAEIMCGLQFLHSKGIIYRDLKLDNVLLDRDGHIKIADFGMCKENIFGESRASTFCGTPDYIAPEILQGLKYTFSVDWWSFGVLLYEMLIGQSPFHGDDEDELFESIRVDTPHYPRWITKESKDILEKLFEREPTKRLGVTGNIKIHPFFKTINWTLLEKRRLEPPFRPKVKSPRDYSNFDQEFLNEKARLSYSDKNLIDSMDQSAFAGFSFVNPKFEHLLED
PKCe, sequence (Q02156 whole entry, species assumed): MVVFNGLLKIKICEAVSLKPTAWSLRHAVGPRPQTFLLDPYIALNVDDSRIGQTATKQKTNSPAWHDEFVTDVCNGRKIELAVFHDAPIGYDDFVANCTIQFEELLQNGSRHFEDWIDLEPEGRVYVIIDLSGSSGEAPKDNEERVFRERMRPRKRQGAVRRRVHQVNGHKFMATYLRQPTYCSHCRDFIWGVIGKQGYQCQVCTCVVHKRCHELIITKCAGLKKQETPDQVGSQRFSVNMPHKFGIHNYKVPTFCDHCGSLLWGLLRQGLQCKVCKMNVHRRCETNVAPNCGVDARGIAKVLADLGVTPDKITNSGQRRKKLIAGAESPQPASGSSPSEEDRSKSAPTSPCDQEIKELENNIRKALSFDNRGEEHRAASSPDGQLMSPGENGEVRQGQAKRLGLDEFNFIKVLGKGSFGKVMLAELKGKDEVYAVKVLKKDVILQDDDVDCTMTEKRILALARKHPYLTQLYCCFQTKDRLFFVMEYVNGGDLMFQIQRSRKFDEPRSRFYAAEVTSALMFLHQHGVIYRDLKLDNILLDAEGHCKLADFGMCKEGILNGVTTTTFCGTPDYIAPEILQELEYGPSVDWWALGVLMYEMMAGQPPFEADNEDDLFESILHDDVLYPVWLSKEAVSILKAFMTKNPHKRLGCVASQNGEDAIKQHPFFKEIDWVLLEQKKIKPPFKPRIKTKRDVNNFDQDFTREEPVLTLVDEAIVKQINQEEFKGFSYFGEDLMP
ROCK2, sequence (O75116 whole entry, species assumed): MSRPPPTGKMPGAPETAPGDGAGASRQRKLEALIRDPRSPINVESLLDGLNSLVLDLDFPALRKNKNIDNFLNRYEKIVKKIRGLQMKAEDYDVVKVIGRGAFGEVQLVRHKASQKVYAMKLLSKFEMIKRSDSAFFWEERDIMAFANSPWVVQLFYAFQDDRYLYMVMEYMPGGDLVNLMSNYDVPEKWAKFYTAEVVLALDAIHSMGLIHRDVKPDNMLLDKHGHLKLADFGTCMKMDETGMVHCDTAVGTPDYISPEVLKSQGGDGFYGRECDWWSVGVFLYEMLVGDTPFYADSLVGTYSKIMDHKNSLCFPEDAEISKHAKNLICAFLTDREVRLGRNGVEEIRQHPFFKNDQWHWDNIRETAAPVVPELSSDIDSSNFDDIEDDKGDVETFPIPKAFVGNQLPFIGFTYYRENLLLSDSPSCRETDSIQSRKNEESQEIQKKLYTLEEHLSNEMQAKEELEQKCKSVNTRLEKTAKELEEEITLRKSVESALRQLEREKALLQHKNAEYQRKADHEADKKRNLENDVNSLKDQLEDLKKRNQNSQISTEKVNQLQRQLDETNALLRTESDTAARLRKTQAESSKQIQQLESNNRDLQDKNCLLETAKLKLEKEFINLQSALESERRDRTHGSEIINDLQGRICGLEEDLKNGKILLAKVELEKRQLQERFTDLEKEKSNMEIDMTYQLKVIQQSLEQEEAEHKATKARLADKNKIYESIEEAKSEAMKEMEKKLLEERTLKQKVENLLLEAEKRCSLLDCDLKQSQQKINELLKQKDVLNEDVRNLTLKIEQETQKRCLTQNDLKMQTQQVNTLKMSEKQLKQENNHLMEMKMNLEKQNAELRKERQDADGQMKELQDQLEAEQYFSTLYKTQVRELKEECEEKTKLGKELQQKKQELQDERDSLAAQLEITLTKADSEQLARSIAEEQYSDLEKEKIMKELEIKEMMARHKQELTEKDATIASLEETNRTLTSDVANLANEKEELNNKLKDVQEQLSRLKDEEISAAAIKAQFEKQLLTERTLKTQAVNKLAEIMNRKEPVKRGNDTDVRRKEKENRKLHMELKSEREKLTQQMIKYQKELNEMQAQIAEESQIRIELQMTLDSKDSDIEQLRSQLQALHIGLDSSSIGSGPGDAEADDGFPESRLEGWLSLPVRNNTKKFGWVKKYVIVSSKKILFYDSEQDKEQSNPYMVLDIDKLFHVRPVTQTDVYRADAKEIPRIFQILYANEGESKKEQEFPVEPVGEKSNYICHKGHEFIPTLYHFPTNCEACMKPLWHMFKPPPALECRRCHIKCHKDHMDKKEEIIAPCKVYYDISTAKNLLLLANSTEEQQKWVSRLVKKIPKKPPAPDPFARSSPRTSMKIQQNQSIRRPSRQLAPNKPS

For `C[C@@H]1C[C@H]2[C@@H]3CCC4=CC(=O)C=C[C@]4(C)[C@@]3(F)[C@@H](O)C[C@]2(C)[C@@]1(O)C(=O)COC(=O)CCC(=O)OCc1ccc(C(CNC(=O)OC(C)(C)C)C(=O)Nc2ccc3cnccc3c2)cc1` (stereo partly drawn) [Example 4, 4-(3-((tert-butoxycarbonyl)amino)-1-(isoquinolin-6-ylamino)-1-oxopropan-2-yl)benzyl (2-((8S,9R,10S,11S,13S,14S,16R,17R)-9-fluoro-11,17-dihydroxy-10,13,16-trimethyl-3-oxo-6,7,8,9,10,11,12,13,14,15,16,17-dodecahydro-3H-cyclopenta[a]phenanthren-17-yl)-2-oxoethyl) succinate], the pIC50 ([1]; Mus musculus) was 6.64.
With `C[C@@H]1C[C@H]2[C@@H]3CCC4=CC(=O)C=C[C@]4(C)[C@@]3(F)[C@@H](O)C[C@]2(C)[C@@]1(O)C(=O)COC(=O)CCC(=O)OCc1ccc(C(CCNC(=O)OC(C)(C)C)C(=O)Nc2ccc3cnccc3c2)cc1` (some centres unmarked) [Example 11] the pIC50 ([1]; Mus musculus) was 6.37.
Work on `C[C@@H]1C[C@H]2[C@@H]3CCC4=CC(=O)C=C[C@]4(C)[C@@]3(F)[C@@H](O)C[C@]2(C)[C@@]1(O)C(=O)COC(=O)CCC(=O)OCc1ccc(C(CCN)C(=O)Nc2ccc3cnccc3c2)cc1` (some centres unmarked) [Example 12] yielded a pIC50 ([1]; Mus musculus) of 7.04.
`CC(C)(C)OC(=O)NC[C@@H](C(=O)Nc1ccc2cnccc2c1)c1ccc(COC(=O)CCC(=O)OCC(=O)[C@@]2(O)CC[C@H]3[C@@H]4CCC5=CC(=O)C=C[C@]5(C)[C@H]4[C@@H](O)C[C@@]32C)cc1` [Example 14] showed a pIC50 ([1]; Mus musculus) of 6.21.
Work on `C[C@]12C=CC(=O)C=C1CC[C@@H]1[C@@H]2[C@@H](O)C[C@@]2(C)[C@H]1CC[C@]2(O)C(=O)COC(=O)C1CC1C(=O)OCc1ccc([C@@H](CN)C(=O)Nc2ccc3cnccc3c2)cc1` (some centres unmarked) [Example 19] yielded a pIC50 (ROCK2) of 7.57, a pIC50 (ROCK1) of 7.24 and a pIC50 (PKA) of 6.48. For the same compound, the pIC50 (JAK1) was 5.02, the pIC50 (JAK3) was 5.59 and the pIC50 (TYK2) was 4.30. It also gave a pIC50 (IKKb) of 4.30, a pIC50 (PKCh) of 6.36 and a pIC50 (PKCd) of 6.23. The pIC50 (PKCe) was 5.38, the pIC50 (AKT1) was 5.60 and the pIC50 (PTM) was 6.15. The pIC50 (NFkB) was 5.00.
`C[C@@H]1C[C@H]2[C@@H]3CCC4=CC(=O)C=C[C@]4(C)[C@@]3(F)[C@@H](O)C[C@]2(C)[C@@]1(O)C(=O)COC(=O)CCC(=O)OCc1ccc(C(C(=O)Nc2ccc3cnccc3c2)N(C)C)cc1` (some centres unmarked) [Example 20] gave a pIC50 ([1]; Mus musculus) of 6.84.
With `CN(C)C(C(=O)Nc1ccc2cnccc2c1)c1ccc(COC(=O)CCC(=O)OCC(=O)[C@@]2(O)CC[C@H]3[C@@H]4CCC5=CC(=O)C=C[C@]5(C)[C@H]4[C@@H](O)C[C@@]32C)cc1` (some centres unmarked) [Example 21] the pIC50 ([1]; Mus musculus) was 5.78.
With `CN(C)C(C(=O)Nc1ccc2cnccc2c1)c1ccc(COC(=O)CCC(=O)OCC(=O)[C@@]23OC(C)(C)O[C@@H]2C[C@H]2[C@@H]4C[C@H](F)C5=CC(=O)C=C[C@]5(C)[C@@]4(F)[C@@H](O)C[C@@]23C)cc1` (some centres unmarked) [Example 23] the pIC50 ([1]; Mus musculus) was 8.35.
Compound `C[C@@H]1C[C@H]2[C@@H]3CCC4=CC(=O)C=C[C@]4(C)[C@@]3(F)[C@@H](O)C[C@]2(C)[C@@]1(O)C(=O)COC(=O)CCC(=O)OCc1ccc([C@@H](CN)C(=O)Nc2ccc3cnccc3c2)cc1` [Example 25] has a pIC50 (ROCK2) of 7.77, a pIC50 (ROCK1) of 7.60 and a pIC50 (PKA) of 6.86. It also gave a pIC50 (JAK1) of 4.30, a pIC50 (JAK2) of 4.39 and a pIC50 (JAK3) of 4.67. The pIC50 (TYK2) was 4.30, the pIC50 (IKKb) was 4.41 and the pIC50 (PKCh) was 6.76. For the same compound, the pIC50 (PKCd) was 6.65, the pIC50 (PKCe) was 5.80 and the pIC50 (AKT1) was 6.02. It also gave a pIC50 (PTM) of 6.53, a pIC50 (HTM) of 8.35 and a pIC50 (in vitro) of 4.00. It also gave a pIC50 (NFkB) of 7.41.
Work on `C[C@@H]1C[C@H]2[C@@H]3CCC4=CC(=O)C=C[C@]4(C)[C@@]3(F)[C@@H](O)C[C@]2(C)[C@@]1(O)C(=O)COC(=O)CCC(=O)OCCc1ccc(C(CN)C(=O)Nc2ccc3cnccc3c2)cc1` (some centres unmarked) [Example 26] yielded a pIC50 ([1]; Mus musculus) of 6.64.
Compound `C[C@@H]1C[C@H]2[C@@H]3CCC4=CC(=O)C=C[C@]4(C)[C@@]3(F)[C@@H](O)C[C@]2(C)[C@@]1(O)C(=O)COC(=O)C1CC1C(=O)OCc1ccc([C@@H](CN)C(=O)Nc2ccc3cnccc3c2)cc1` (some centres unmarked) [Example 27] has a pIC50 (ROCK2) of 7.89, a pIC50 (ROCK1) of 7.54 and a pIC50 (PKA) of 6.50. The pIC50 (JAK1) was 4.30, the pIC50 (JAK2) was 4.38 and the pIC50 (JAK3) was 4.93. The pIC50 (TYK2) was 4.30, the pIC50 (IKKb) was 4.33 and the pIC50 (PKCh) was 6.48. It also gave a pIC50 (PKCd) of 6.29, a pIC50 (PKCe) of 5.46 and a pIC50 (AKT1) of 5.58. The pIC50 (PTM) was 6.84, the pIC50 (HTM) was 8.22 and the pIC50 (in vitro) was 4.00. The pIC50 (NFkB) was 5.75.
For `CN(C)C(C(=O)Nc1ccc2cnccc2c1)c1ccc(COC(=O)CCC(=O)OCC(=O)[C@@]23OC(C)(C)O[C@@H]2C[C@H]2[C@@H]4CCC5=CC(=O)C=C[C@]5(C)[C@@]4(F)[C@@H](O)C[C@@]23C)cc1` (some centres unmarked) [Example 28], the pIC50 ([1]; Mus musculus) was 7.81.
`CC(C)(C)OC(=O)NC[C@@H](C(=O)Nc1ccc2cnccc2c1)c1ccc(COC(=O)CCC(=O)OCC(=O)[C@@]23OC(C)(C)O[C@@H]2C[C@H]2[C@@H]4CCC5=CC(=O)C=C[C@]5(C)[C@@]4(F)[C@@H](O)C[C@@]23C)cc1` [Example 29] gave a pIC50 ([1]; Mus musculus) of 7.15.
With `CC(C)(C)OC(=O)NCC(C(=O)Nc1ccc2cnccc2c1)c1ccc(CCOC(=O)CCC(=O)OCC(=O)[C@@]23OC(C)(C)O[C@@H]2C[C@H]2[C@@H]4C[C@H](F)C5=CC(=O)C=C[C@]5(C)[C@@]4(F)[C@@H](O)C[C@@]23C)cc1` (some centres unmarked) [Example 31] the pIC50 ([1]; Mus musculus) was 5.26.
Compound `C[C@@H]1C[C@H]2[C@@H]3CCC4=CC(=O)C=C[C@]4(C)[C@@]3(F)[C@@H](O)C[C@]2(C)[C@@]1(O)C(=O)COC(=O)C1CC1C(=O)OCCc1ccc(C(CN)C(=O)Nc2ccc3cnccc3c2)cc1` (some centres unmarked) [Example 37] has a pIC50 ([1]; Mus musculus) of 5.51.
Work on `CC1(C)O[C@@H]2C[C@H]3[C@@H]4C[C@H](F)C5=CC(=O)C=C[C@]5(C)[C@@]4(F)[C@@H](O)C[C@]3(C)[C@]2(C(=O)COC(=O)CCC(=O)OCc2ccc([C@@H](CN)C(=O)Nc3ccc4cnccc4c3)cc2)O1` [Example 40] yielded a pIC50 (ROCK2) of 7.89, a pIC50 (ROCK1) of 7.72 and a pIC50 (PKA) of 7.15. The pIC50 (JAK1) was 4.30, the pIC50 (JAK3) was 4.75 and the pIC50 (TYK2) was 4.30. It also gave a pIC50 (IKKb) of 4.48, a pIC50 (PKCh) of 6.72 and a pIC50 (PKCd) of 6.82. It also gave a pIC50 (PKCe) of 6.61, a pIC50 (AKT1) of 6.28 and a pIC50 (PTM) of 6.66. The pIC50 (HTM) was 7.96 and the pIC50 (NFkB) was 7.55.
Work on `C[C@@H]1C[C@H]2[C@@H]3CCC4=CC(=O)C=C[C@]4(C)[C@@]3(F)[C@@H](O)C[C@]2(C)[C@@]1(O)C(=O)COC(=O)c1ccc(C(=O)OCc2ccc([C@@H](CN)C(=O)Nc3ccc4cnccc4c3)cc2)cc1` [Example 66, 4-((S)-3-amino-1-(isoquinolin-6-ylamino)-1-oxopropan-2-yl)benzyl (2-((8S,9R,10S,11S,13S,14S,16R,17R)-9-fluoro-11,17-dihydroxy-10,13,16-trimethyl-3-oxo-6,7,8,9,10,11,12,13,14,15,16,17-dodecahydro-3H-cyclopenta[a]phenanthren-17-yl)-2-oxoethyl) terephthalate dihydrochloride] yielded a pIC50 (ROCK2) of 7.59, a pIC50 (ROCK1) of 7.44 and a pIC50 (PKA) of 6.93. For the same compound, the pIC50 (JAK1) was 4.30, the pIC50 (JAK2) was 4.44 and the pIC50 (JAK3) was 4.36. For the same compound, the pIC50 (TYK2) was 4.30, the pIC50 (IKKb) was 4.30 and the pIC50 (PKCh) was 6.55. It also gave a pIC50 (PKCd) of 6.45, a pIC50 (PKCe) of 5.44 and a pIC50 (AKT1) of 5.87. For the same compound, the pIC50 (PTM) was 6.45, the pIC50 (HTM) was 7.82 and the pIC50 (in vitro) was 4.00. The pIC50 (NFkB) was 7.26.
`C[C@@H]1C[C@H]2[C@@H]3CCC4=CC(=O)C=C[C@]4(C)[C@@]3(F)[C@@H](O)C[C@]2(C)[C@@]1(O)C(=O)COC(=O)c1cccc([C@@H]2C[C@H]2C(=O)Nc2ccc3cnccc3c2)c1` [Example 90, 2-((8S,9R,10S,11S,13S,14S,16R,17R)-9-fluoro-11,17-dihydroxy-10,13,16-trimethyl-3-oxo-6,7,8,9,10,11,12,13,14,15,16,17-dodecahydro-3H-cyclopenta[a]phenanthren-17-yl)-2-oxoethyl 3-((1R,2R)-2-(isoquinolin-6-ylcarbamoyl)cyclopropyl)benzoate] showed a pIC50 ([1]; Mus musculus) of 6.52.
For `C[C@@H]1C[C@H]2[C@@H]3CCC4=CC(=O)C=C[C@]4(C)[C@@]3(F)[C@@H](O)C[C@]2(C)[C@@]1(O)C(=O)COC(=O)c1cccc([C@@H]2C[C@H]2C(=O)Nc2ccc3cnccc3c2F)c1` [Example 91], the pIC50 [1] was 6.99.
